From US20150272939A1, “Identification of Small Molecule Inhibitors of Jumonji AT-Rich Interactive Domain 1A (JARID1A) and 1B (JARID1B) Histone Demethylase” (Yale University, priority 2012, published 2015) come the findings set out here.

For orientation: IC50 means the concentration that inhibits the measured activity by half.

One experiment concerns MCF7 cells. In words: Histone extraction and western blot of H3K4 methylation. The experiment is classed as cell-based, human. The following applies: 10 μM, 72 hours, histone extracts. As to the method:
MCF7 cells treated with PBIT (10 μM) or DMSO (0.1%) for 72 hours were harvested and lysed with PBS containing 0.5% Triton X-100. Nuclei were spun down by centrifugation at 6,500×g for 10 minutes, and the pellets were re-suspended in 0.2 N HCl. The histones were extracted overnight, and cellular debris was removed by centrifugation. The samples were loaded onto 16% SDS-PAGE gels and probed with antibodies against H3K4me3, H3K4me2, H3K4me1 and H3.
To determine whether PBIT affects H3K4 methylation globally in vivo, H3K4 methylation levels were analyzed in histone extracts prepared from MCF7 cells after exposure to PBIT.

The target in the next experiment is T1, JARID1C (Homo sapiens, UniProt P41229).
T1 construct: FLAG (N); made in house; host or cells: Sf21 insect cells (baculovirus)
T1 sequence (P41229 whole entry): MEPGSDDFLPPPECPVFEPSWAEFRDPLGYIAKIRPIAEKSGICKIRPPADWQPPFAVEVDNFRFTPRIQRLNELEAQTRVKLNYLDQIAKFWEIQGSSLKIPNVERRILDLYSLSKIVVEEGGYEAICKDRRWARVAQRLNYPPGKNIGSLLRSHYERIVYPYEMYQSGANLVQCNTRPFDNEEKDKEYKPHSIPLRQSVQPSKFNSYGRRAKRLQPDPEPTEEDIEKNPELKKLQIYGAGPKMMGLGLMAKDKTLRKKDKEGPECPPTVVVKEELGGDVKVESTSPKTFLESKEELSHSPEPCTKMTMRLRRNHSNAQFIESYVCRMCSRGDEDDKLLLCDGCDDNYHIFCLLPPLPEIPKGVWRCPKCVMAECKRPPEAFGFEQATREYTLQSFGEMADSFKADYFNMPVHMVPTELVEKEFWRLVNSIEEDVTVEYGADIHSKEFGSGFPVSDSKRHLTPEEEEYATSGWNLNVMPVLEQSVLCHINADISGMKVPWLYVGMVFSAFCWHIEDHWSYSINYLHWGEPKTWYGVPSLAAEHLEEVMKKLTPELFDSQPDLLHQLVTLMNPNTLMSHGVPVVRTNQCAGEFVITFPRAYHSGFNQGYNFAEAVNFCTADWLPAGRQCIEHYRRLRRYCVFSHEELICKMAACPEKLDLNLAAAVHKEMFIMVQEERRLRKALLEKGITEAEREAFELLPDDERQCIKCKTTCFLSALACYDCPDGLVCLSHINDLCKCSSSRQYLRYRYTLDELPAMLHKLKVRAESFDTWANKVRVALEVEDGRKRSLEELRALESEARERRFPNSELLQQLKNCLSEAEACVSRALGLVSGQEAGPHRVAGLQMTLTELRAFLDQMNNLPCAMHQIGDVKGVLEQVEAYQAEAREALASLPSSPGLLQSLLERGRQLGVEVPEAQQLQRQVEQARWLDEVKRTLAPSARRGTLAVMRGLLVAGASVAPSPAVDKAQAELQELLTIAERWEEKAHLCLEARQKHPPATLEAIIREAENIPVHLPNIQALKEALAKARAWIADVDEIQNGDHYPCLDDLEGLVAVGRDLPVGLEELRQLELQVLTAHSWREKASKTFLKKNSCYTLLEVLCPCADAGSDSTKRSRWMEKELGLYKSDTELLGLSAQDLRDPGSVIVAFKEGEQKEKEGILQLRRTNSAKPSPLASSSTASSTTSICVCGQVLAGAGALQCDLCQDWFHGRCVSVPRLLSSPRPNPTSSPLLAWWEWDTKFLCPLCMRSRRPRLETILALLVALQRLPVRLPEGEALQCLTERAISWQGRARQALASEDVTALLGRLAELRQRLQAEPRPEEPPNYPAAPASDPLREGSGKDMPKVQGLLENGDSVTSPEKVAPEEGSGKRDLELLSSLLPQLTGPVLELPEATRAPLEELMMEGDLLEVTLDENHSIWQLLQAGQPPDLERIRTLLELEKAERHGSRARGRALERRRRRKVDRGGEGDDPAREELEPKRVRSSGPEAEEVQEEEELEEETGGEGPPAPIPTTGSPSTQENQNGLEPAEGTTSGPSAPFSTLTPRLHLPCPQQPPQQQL
In words: FLAG-JARID1C histone demethylase assay with AlphaScreen detection. The experiment is classed as biochemical. As to the method:
(§1) Histone demethylase assays were performed in 384 well white plates (Corning 3574). Demethylase buffer conditions for FLAG-JARID1B were as follows: 10 μM α-KG, 100 μM ascorbate, 50 μM (NH4)2Fe(SO4)2, 50 mM Hepes (pH 7.5), 0.01% (v/v) Tween 20, and 0.1% (w/v) bovine serum albumin. The demethylase reactions included 64 nM bio-H3K4me3 peptide alone or in the presence of 4 nM FLAG-JARID1B enzyme in a 10 μl reaction at 25° C. for 30 minutes. As a positive control, 64 nM bio-H3K4me2 peptide was assayed in the absence of enzyme. Assay conditions for FLAG-JARID1C is the same as for FLAG-JARID1B except that 20 nM enzyme was used. For FLAG-JARID1A, the demethylase buffer was similar to FLAG-JARID1B, except that 125 μM α-KG and 13 nM FLAG-JARID1A enzyme were used. The His-FLAG-UTX and FLAG-JMJD3 demethylase assays also employed the same buffer conditions as for FLAG-JARID1B, with 64 nM bio-H3K27me3 peptide assayed with or without 25 nM His-FLAG-UTX enzyme or 50 nM FLAG-JMJD3 (BPS Bioscience, 50115), and 64 nM bio-H3K27me2 peptide as a positive control. JARID1A, JARID1C, UTX, and JMJD3 histone demethylase assays proceeded at 37° C. for 1 hour.
(§2) The AlphaScreen General IgG (Protein A) detection kit was obtained from PerkinElmer. Demethylated H3K4 products were detected using AlphaScreen antibody/bead mix containing 7.5 mM ethylenediaminetetraacetic acid (EDTA) and 0.15 μg/ml anti-H3K4me1 antibody in a final volume of 20 μl. For detection of demethylated H3K27 products, the AlphaScreen antibody/bead mix containing 7.5 mM EDTA and 0.15 μg/ml anti-H3K27me2 antibody in a final volume of 20 μl. The luminescence signal was measured using the Envision (PerkinElmer) or Pherastar (BMG Labtech) Platereaders.
(In general: Bead proximity is the source of the signal in Alpha formats.)

For experiment [1], the system named is 1445 mouse melanoma cells. In words: WST-1 cell proliferation assay. As to conditions: 0, 10 and 30 μM. The experiment is classed as cell-based. As to the method: The colorimetric assay (WST-1 reagent) from Roche (11644807001) was performed in 96 well white clear bottom plates (Costar, 3610). 1,000 cells were seeded per well (in quadruplicate) overnight, and PBIT was added to the cells to the indicated concentration for 72 hrs. 0.01% DMSO was included as the control. The WST-1 reagent was added (5 μl per well) for 4 hrs, and OD 440 nm absorbance (which reflects the number of viable cells) was measured with the BioTek Synergy Mx Platereader.
A panel of mouse and human melanoma cells was treated with 0, 10 and 30 μM PBIT and their proliferation rates were assessed using WST-1 assays.
(Tetrazolium dyes change colour on reduction, which living cells bring about.)

The next experiment concerns the target T2, JARID1A (Homo sapiens, UniProt P29375).
T2 construct: the high-throughput screen of the invention utilizes full length JARID1A or JARID1B; FLAG (N); made in house; host or cells: Sf21 insect cells (baculovirus)
In words: FLAG-JARID1A histone demethylase assay with AlphaScreen detection (HTS and dose response). The format is biochemical. As to the method: as §1, §2
FLAG-JARID1A was screened against 9,600 compounds. These compound libraries were from the Yale Center for Molecular Discovery. The libraries screened include the MicroSource Gen-Plus, MicroSource Pure Natural Products, NIH Clinical Collection, Enzo Epigenetics, and ChemBridge MW-Set libraries. Compounds dissolved in dimethyl sulfoxide (DMSO) were pintooled into a 384 well plate containing bio-H3K4me3 peptide in demethylase buffer to a final concentration of 20 μM. The reactions were initiated by the addition of 13 nM FLAG-JARID1A, and detected as described above. To eliminate the false positive hits, a counterscreen was performed against bio-H3K4me2 in the absence of enzyme.

Where [2] appears, read: compound 10 μM, 64 nM bio-H3K4me3 peptide.

“And” between values parts separate entries of the source, which are not always exact repeats. Equal values may be shown once. “Also recorded” adds a separate entry of the source.

T2 sequence (P29375 whole entry): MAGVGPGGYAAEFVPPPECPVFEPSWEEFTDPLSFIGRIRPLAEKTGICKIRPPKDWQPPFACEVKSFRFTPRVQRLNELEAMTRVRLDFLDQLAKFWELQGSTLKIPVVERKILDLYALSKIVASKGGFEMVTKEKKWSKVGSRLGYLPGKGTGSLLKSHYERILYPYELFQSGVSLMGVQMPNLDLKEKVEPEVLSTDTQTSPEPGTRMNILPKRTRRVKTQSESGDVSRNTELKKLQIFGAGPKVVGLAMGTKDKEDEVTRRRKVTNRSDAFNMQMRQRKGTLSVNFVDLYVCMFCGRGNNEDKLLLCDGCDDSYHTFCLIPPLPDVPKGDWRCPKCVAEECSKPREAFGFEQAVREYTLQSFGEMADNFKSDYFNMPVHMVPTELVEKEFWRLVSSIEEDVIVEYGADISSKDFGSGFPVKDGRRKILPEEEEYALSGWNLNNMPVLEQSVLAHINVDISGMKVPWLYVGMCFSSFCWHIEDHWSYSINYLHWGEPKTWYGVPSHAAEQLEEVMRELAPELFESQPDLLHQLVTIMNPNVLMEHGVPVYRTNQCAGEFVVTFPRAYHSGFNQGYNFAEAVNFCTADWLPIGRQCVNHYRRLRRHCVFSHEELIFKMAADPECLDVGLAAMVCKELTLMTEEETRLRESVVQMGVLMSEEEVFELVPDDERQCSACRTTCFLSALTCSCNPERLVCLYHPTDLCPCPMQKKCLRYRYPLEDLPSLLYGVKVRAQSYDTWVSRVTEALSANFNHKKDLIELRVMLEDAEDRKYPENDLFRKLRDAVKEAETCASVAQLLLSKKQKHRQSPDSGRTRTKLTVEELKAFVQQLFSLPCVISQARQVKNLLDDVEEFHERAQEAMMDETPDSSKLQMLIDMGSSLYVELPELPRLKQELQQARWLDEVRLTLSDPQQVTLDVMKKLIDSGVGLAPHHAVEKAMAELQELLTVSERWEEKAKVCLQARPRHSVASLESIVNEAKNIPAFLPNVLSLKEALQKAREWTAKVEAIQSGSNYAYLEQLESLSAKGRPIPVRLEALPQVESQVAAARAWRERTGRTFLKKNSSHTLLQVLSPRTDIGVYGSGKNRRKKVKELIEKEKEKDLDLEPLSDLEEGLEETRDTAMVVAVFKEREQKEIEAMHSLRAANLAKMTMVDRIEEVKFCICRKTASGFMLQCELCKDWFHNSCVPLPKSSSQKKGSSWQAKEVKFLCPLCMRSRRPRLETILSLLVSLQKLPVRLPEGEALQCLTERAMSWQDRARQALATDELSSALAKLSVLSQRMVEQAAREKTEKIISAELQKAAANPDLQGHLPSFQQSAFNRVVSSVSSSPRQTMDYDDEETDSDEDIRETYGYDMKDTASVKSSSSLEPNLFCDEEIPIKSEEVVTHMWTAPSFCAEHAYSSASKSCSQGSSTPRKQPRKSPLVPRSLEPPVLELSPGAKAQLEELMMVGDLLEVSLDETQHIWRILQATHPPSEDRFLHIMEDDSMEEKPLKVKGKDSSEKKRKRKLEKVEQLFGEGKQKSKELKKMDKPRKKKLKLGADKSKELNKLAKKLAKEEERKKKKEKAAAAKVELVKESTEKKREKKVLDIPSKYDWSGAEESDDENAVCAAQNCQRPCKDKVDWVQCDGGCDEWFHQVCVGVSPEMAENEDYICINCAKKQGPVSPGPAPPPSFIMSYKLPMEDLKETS

Take `Cc1ccc(-n2sc3ccccc3c2=O)cc1` [PBIT, 2-4(4-methylphenyl)-1,2-benzisothiazol-3(2H)-one]: in the experiment with MCF7 cells, the H3K4me1 levels entry is recorded as “did not change significantly”, the H3K4me2 levels result is “did not change significantly” and the H3K4me3 levels entry is recorded as “increased; also recorded: dramatic increase”. The JARID1C demethylase activity entry on JARID1C (setting [2]) is “inhibited”. In addition, at JARID1C (dose response, read-out: IC50 against JARID1C), the IC50 was 4.9 µM. Besides, the “sensitivity of proliferation to treatment (WST-1)” value in experiment [1] is “most sensitive”. Also, at JARID1A (setting [2]), the JARID1A demethylase activity result is recorded as “inhibited”. The concentration for half-maximal inhibition (IC50) on JARID1A (dose response, 50 μM Fe (II), read-out: IC50 against JARID1A) is 6 µM and ~6 µM.
